Reference: US11434242B2, “Dopamine-b-hydroxylase inhibitors” (BIAL-PORTELA & Cª, S.A., priority 2017, dated 2022)

Molecular target: T1, Dopamine beta hydroxylase (Homo sapiens, UniProt P09172)
T1 construct: 125 μl of plasma; tissue Instituto Português do Sangue Transplantação; host or cells: human plasma from healthy donors
T1 sequence (P09172 40-617 limits assumed): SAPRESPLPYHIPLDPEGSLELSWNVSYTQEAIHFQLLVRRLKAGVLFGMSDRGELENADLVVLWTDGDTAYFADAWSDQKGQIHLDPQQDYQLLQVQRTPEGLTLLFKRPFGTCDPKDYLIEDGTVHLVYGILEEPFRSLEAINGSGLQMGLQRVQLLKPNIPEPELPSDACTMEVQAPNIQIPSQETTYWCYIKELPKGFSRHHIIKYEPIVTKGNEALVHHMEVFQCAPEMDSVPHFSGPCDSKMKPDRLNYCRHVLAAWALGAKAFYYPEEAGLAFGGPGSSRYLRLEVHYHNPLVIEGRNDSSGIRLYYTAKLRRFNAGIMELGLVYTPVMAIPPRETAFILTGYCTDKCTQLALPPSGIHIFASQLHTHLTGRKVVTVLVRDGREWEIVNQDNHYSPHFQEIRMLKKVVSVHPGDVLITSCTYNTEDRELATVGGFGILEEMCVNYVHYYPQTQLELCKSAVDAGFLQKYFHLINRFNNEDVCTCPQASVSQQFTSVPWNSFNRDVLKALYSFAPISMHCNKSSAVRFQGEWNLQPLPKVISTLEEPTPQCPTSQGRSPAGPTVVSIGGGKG
Assay: Dopamine beta hydroxylase activity in human plasma
Assay type: biochemical
Details: for Plasma (0.01 μM), activity in % of control: inhibitor 0.01 μM; for Plasma (0.1 μM), activity in % of control: inhibitor 0.1 μM
Method in brief: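 Healthy-donor human plasma pre-incubated 10 min at 37° C with compound at final 10, 100 or 1000 nM in pH 5.0 acetate buffer with ascorbate, fumarate, pargyline, N-ethylmaleimide, catalase and copper sulfate. Tyramine substrate then added for 45 min; octopamine formed was isolated by SCX cartridge, periodate-converted and read at 330 nm; activity given as % control.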

SMILES | Plasma (0.01 μM), activity in % of control | Plasma (0.1 μM), activity in % of control
Cn1c(CC(=O)Nc2ncco2)c2n(c1=S)C[C@H](c1c(F)ccc(Cl)c1F)C2 [Example 317, (S)-2-(6-(3-chloro-2,6-difluorophenyl)-2-methyl-3-thioxo-2,5,6,7-tetrahydro-3H-pyrrolo[1,2-c]imidazol-1-yl)-N-(oxazol-2-yl)acetamide] | 45.6 % of control | 5.3 % of control
Cn1c(CCC(=O)N2CCOCC2)c2n(c1=S)C[C@@H](c1c(F)c(F)cc(F)c1F)C2 [Example 318, (R)-3-(2-methyl-3-thioxo-6-(2,3,5,6-tetrafluorophenyl)-2,5,6,7-tetrahydro-3H-pyrrolo[1,2-c]imidazol-1-yl)-1-morpholinopropan-1-one] | 88.4 % of control | 61.4 % of control
Cn1c(CCC(=O)N2CC3C(C2)C3(C)C)c2n(c1=S)C[C@@H](c1c(F)c(F)cc(F)c1F)C2 (stereo partly drawn) [Example 319, 1-(6,6-dimethyl-3-azabicyclo[3.1.0]hexan-3-yl)-3-((R)-2-methyl-6-(2,3,5,6-tetrafluorophenyl)-3-thioxo-2,5,6,7-tetrahydro-3H-pyrrolo[1,2-c]imidazol-1-yl)propan-1-one] | 67.9 % of control | 16.5 % of control
Cn1c(CC(=O)N2CCNCC2)c2n(c1=S)C[C@@]1(c3cc(Cl)ccc3F)C[C@@H]21 [Example 320, 2-((5aS,6aR)-5a-(5-chloro-2-fluorophenyl)-2-methyl-3-thioxo-2,3,5,5a,6,6a-hexahydrocyclopropa[3,4]pyrrolo[1,2-c]imidazol-1-yl)-1-(piperazin-1-yl)ethan-1-one] | 90.3 % of control | 31.1 % of control
Cl.Cn1c(CC(=O)N2CCNCC2)c2n(c1=S)C[C@@]1(c3cc(Br)ccc3F)C[C@@H]21 [Example 321, 2-((5aS,6aR)-5a-(5-bromo-2-fluorophenyl)-2-methyl-3-thioxo-2,3,5,5a,6,6a-hexahydrocyclopropa[3,4]pyrrolo[1,2-c]imidazol-1-yl)-1-(piperazin-1-yl)ethan-1-one Hydrochloride] | 89.7 % of control | 13.3 % of control
Cl.Cn1c(CCNC2CCCC2)c2n(c1=S)C[C@@]1(c3cc(Cl)ccc3F)C[C@@H]21 [Example 322, (5aS,6aR)-5a-(5-chloro-2-fluorophenyl)-1-(2-(cyclopentylamino)ethyl)-2-methyl-5,5a,6,6a-tetrahydrocyclopropa[3,4]pyrrolo[1,2-c]imidazole-3(2H)-thione Hydrochloride] | 62.3 % of control | 43.4 % of control
Cn1c(CC(=O)N2CCNC(=O)C2)c2n(c1=S)C[C@@H](c1c(F)c(F)cc(F)c1F)C2 [Example 323, (R)-4-(2-(2-methyl-6-(2,3,5,6-tetrafluorophenyl)-3-thioxo-2,5,6,7-tetrahydro-3H-pyrrolo[1,2-c]imidazol-1-yl)acetyl)piperazin-2-one] | 86.3 % of control | 43.3 % of control
CN1CCN(C(=O)Cc2c3n(c(=S)n2C)C[C@@H](c2c(F)c(F)cc(F)c2F)C3)CC1=O [Example 324, (R)-1-methyl-4-(2-(2-methyl-6-(2,3,5,6-tetrafluorophenyl)-3-thioxo-2,5,6,7-tetrahydro-3H-pyrrolo[1,2-c]imidazol-1-yl)acetyl)piperazin-2-one] | 88.6 % of control | 53.1 % of control
Cn1c(CC(=O)N[C@H]2CC[C@H](O)CC2)c2n(c1=S)C[C@@]1(c3cc(Br)ccc3F)C[C@@H]21 [Example 325, 2-((5aS,6aR)-5a-(5-bromo-2-fluorophenyl)-2-methyl-3-thioxo-2,3,5,5a,6,6a-hexahydrocyclopropa[3,4]pyrrolo[1,2-c]imidazol-1-yl)-N-((1r,4R)-4-hydroxycyclohexyl)acetamide] | 34.2 % of control | 3.8 % of control
CN1CCN(C(=O)Cc2c3n(c(=S)n2C)C[C@@]2(c4cc(Cl)ccc4F)C[C@@H]32)CC1 [Example 326, 2-((5aS,6aR)-5a-(5-chloro-2-fluorophenyl)-2-methyl-3-thioxo-2,3,5,5a,6,6a-hexahydrocyclopropa[3,4]pyrrolo[1,2-c]imidazol-1-yl)-1-(4-methylpiperazin-1-yl)ethan-1-one] | 96.6 % of control | 59.5 % of control
Cn1c(CC(=O)N[C@@H]2CCCOC2)c2n(c1=S)C[C@H](c1c(F)ccc(Cl)c1F)C2 [Example 327, 2-((S)-6-(3-chloro-2,6-difluorophenyl)-2-methyl-3-thioxo-2,5,6,7-tetrahydro-3H-pyrrolo[1,2-c]imidazol-1-yl)-N—((R)-tetrahydro-2H-pyran-3-yl)acetamide] | 49.9 % of control | 7.0 % of control
Cn1c(CC(=O)NCc2cnccn2)c2n(c1=S)C[C@H](c1c(F)ccc(Cl)c1F)C2 [Example 328, (S)-2-(6-(3-chloro-2,6-difluorophenyl)-2-methyl-3-thioxo-2,5,6,7-tetrahydro-3H-pyrrolo[1,2-c]imidazol-1-yl)-N-(pyrazin-2-ylmethyl)acetamide] | 63.1 % of control | 9.4 % of control
Cn1c(CC(=O)N2CCOCC2)c2n(c1=S)C[C@H](c1c(F)ccc(Cl)c1F)C2 [Example 329, (S)-2-(6-(3-chloro-2,6-difluorophenyl)-2-methyl-3-thioxo-2,5,6,7-tetrahydro-3H-pyrrolo[1,2-c]imidazol-1-yl)-1-morpholinoethan-1-one] | 41.7 % of control | 16.1 % of control
Cl.Cn1c(CCNC2CCCC2)c2n(c1=S)C[C@@]1(c3cc(Br)ccc3F)C[C@@H]21 [Example 330, (5aS,6aR)-5a-(5-bromo-2-fluorophenyl)-1-(2-(cyclopentylamino)ethyl)-2-methyl-5,5a,6,6a-tetrahydrocyclopropa[3,4]pyrrolo[1,2-c]imidazole-3(2H)-thione Hydrochloride] | 71.7 % of control | 32.5 % of control
Cl.Cn1c(CCN[C@@H]2CCCOC2)c2n(c1=S)C[C@@]1(c3cc(Br)ccc3F)C[C@@H]21 [Example 331, (5aS,6aR)-5a-(5-bromo-2-fluorophenyl)-2-methyl-1-(2-(((R)-tetrahydro-2H-pyran-3-yl)amino)ethyl)-5,5a,6,6a-tetrahydrocyclopropa[3,4]pyrrolo[1,2-c]imidazole-3(2H)-thione Hydrochloride] | 77.4 % of control | 50.2 % of control
Cl.Cn1c(CC(=O)NCc2ccccn2)c2n(c1=S)C[C@@]1(c3cc(Cl)ccc3F)C[C@@H]21 [Example 332, 2-((5aS,6aR)-5a-(5-chloro-2-fluorophenyl)-2-methyl-3-thioxo-2,3,5,5a,6,6a-hexahydrocyclopropa[3,4]pyrrolo[1,2-c]imidazol-1-yl)-N-(pyridin-2-ylmethyl)acetamide Hydrochloride] | 32.8 % of control | 2.7 % of control
